Converted amounts (≈) assume the structure as drawn. The source made the active and inactive calls. The rule behind the calls is not given here.
Assays:
Staphylococcus aureus [1] = assay: Antibacterial activity against methicillin-resistant Staphylococcus aureus ATCC 43300 after 20 to 24 hrs by CLSI method; assay type: functional
Staphylococcus aureus [2] = assay: Potentiation of oxacillin-mediated antibacterial activity against methicillin-resistant Staphylococcus aureus ATCC 43300 at 32 ug/ml after 20 to 24 hrs by CLSI method; assay type: functional
Staphylococcus aureus [3] = assay: Potentiation of oxacillin-mediated antibacterial activity against methicillin-resistant Staphylococcus aureus ATCC 43300 assessed as decrease in oxacillin MIC at 32 ug/ml after 20 to 24 hrs by CLSI method relative to control; assay type: functional
Staphylococcus aureus [4] = assay: Antibacterial activity against methicillin-resistant Staphylococcus aureus R53 clinical isolate after 20 to 24 hrs by CLSI method; assay type: functional
Staphylococcus aureus [5] = assay: Antibacterial activity against methicillin-resistant Staphylococcus aureus R304 clinical isolate after 20 to 24 hrs by CLSI method; assay type: functional
Staphylococcus aureus [6] = assay: Antibacterial activity against methicillin-resistant Staphylococcus aureus R314 clinical isolate after 20 to 24 hrs by CLSI method; assay type: functional
Staphylococcus aureus [7] = assay: Antibacterial activity against methicillin-resistant Staphylococcus aureus R50 clinical isolate after 20 to 24 hrs by CLSI method; assay type: functional
Staphylococcus aureus [8] = assay: Antibacterial activity against methicillin-resistant Staphylococcus aureus R16 clinical isolate after 20 to 24 hrs by CLSI method; assay type: functional
Staphylococcus aureus [9] = assay: Antibacterial activity against methicillin-resistant Staphylococcus aureus R15 clinical isolate after 20 to 24 hrs by CLSI method; assay type: functional
Staphylococcus aureus [10] = assay: Antibacterial activity against methicillin-resistant Staphylococcus aureus ATCC 43300 assessed as growth inhibition at 2 ug/ml after 24 hrs by Epsilometer test; assay type: functional, organism-based
Staphylococcus aureus [11] = assay: Antibacterial activity against methicillin-resistant Staphylococcus aureus R306 clinical isolate after 20 to 24 hrs by CLSI method; assay type: functional
Staphylococcus aureus [12] = assay: Antibacterial activity against methicillin-resistant Staphylococcus aureus R313 clinical isolate after 20 to 24 hrs by CLSI method; assay type: functional
Staphylococcus aureus [13] = assay: Downregulation of mecA mRNA expression in methicillin-resistant Staphylococcus aureus ATCC 43300 at 2 ug/ml after 4 hrs by RT-PCR analysis; assay type: functional, organism-based
Staphylococcus aureus [14] = assay: Antibacterial activity against methicillin-resistant Staphylococcus aureus R308 clinical isolate after 20 to 24 hrs by CLSI method; assay type: functional
Staphylococcus aureus [15] = assay: Antibacterial activity against methicillin-resistant Staphylococcus aureus R302 clinical isolate after 20 to 24 hrs by CLSI method; assay type: functional
Staphylococcus aureus [16] = assay: Antibacterial activity against methicillin-resistant Staphylococcus aureus ATCC 43300 assessed as change in bacterial surface at 2 ug/ml after 4 hrs by scanning electron microscopic analysis; assay type: functional, organism-based
Staphylococcus aureus [17] = assay: Antibacterial activity against methicillin-resistant Staphylococcus aureus R49 clinical isolate after 20 to 24 hrs by CLSI method; assay type: functional
Staphylococcus aureus [18] = assay: Antibacterial activity against methicillin-resistant Staphylococcus aureus R36 clinical isolate after 20 to 24 hrs by CLSI method; assay type: functional
Staphylococcus aureus [19] = assay: Antibacterial activity against methicillin-resistant Staphylococcus aureus ATCC 43300 assessed as growth inhibition at 2 ug/ml measured up to 24 hrs by time kill assay; assay type: functional, organism-based

Row | SMILES | MIC (Staphylococcus aureus [1]) [µg/mL] | MIC (Staphylococcus aureus [2]) [µg/mL] | other results
1 | CCCCCCCCCCCCO [DODECANOL] | > 256 | > 32 | –
2 | CCCCCCCCCCCCCCCCO[C@@H]1O[C@H](CO)[C@@H](O)[C@H](O)[C@H]1O | > 256 | > 32 | –
3 | CCCCCCCCCCO [DECANOL] | > 256 | > 32 | –
4 | CCCCCCCCCCCCCCCCOCc1cn([C@@H]2O[C@H](CO)[C@H](O)[C@H](O)[C@H]2O)nn1 | 256 (≈ 527 µM) | 16 | fold change (FC) (Staphylococcus aureus [3]): 16
5 | CCCCCCCCCCCCOCc1cn([C@@H]2O[C@H](CO)[C@@H](O)[C@H](O)[C@@H]2O)nn1 | 256 (≈ 596 µM) | 4 | fold change (FC) (Staphylococcus aureus [3]): 64
6 | CCCCCCCCCCCCCCO [MYRISTYL ALCOHOL] | > 256 | > 32 | –
7 | Cc1onc(-c2ccccc2)c1C(=O)N[C@@H]1C(=O)N2[C@@H]1SC(C)(C)[C@@H]2C(=O)O [OXACILLIN] | 64 (≈ 159 µM) | – | MIC (Staphylococcus aureus [4]): 8 µg/mL (≈ 19.9 µM); MIC (Staphylococcus aureus [5]): 512 µg/mL (≈ 1280 µM); MIC (Staphylococcus aureus [6]): 512 µg/mL (≈ 1280 µM); MIC (Staphylococcus aureus [7]): 8 µg/mL (≈ 19.9 µM); MIC (Staphylococcus aureus [8]): ≥ 256 µg/mL; MIC (Staphylococcus aureus [9]): 256 µg/mL (≈ 638 µM); growth inhibition (GI) (Staphylococcus aureus [10]): inactive; MIC (Staphylococcus aureus [11]): 512 µg/mL (≈ 1280 µM); MIC (Staphylococcus aureus [12]): 16 µg/mL (≈ 39.9 µM); Activity (Staphylococcus aureus [13]): inactive; MIC (Staphylococcus aureus [14]): 1020 µg/mL (≈ 2550 µM); MIC (Staphylococcus aureus [15]): 512 µg/mL (≈ 1280 µM); Activity (Staphylococcus aureus [16]): inactive; MIC (Staphylococcus aureus [17]): 8 µg/mL (≈ 19.9 µM); MIC (Staphylococcus aureus [18]): 128 µg/mL (≈ 319 µM); growth inhibition (GI) (Staphylococcus aureus [19]): inactive
8 | CCCCCCCCCCCCCCCCO [CETYL ALCOHOL] | > 256 | > 32 | –
9 | CCCCCCCCCCCCCCOCc1cn([C@@H]2O[C@H](CO)[C@H](O)[C@H](O)[C@H]2O)nn1 | 256 (≈ 559 µM) | 8 | fold change (FC) (Staphylococcus aureus [3]): 32
10 | CCCCCCCCCCCCCCO[C@@H]1O[C@H](CO)[C@@H](O)[C@H](O)[C@H]1O | > 256 | > 32 | –
11 | CCCCCCO [1-HEXANOL] | > 256 | > 32 | –
12 | CCCCCCCCO [OCTANOL] | > 256 | > 32 | –
13 | CCCCCCCCCCCCCCCCCCO [CETOSTEARYL ALCOHOL] | > 256 | > 32 | –
14 | CCCCCCCCCCCCCCOCc1cn([C@@H]2O[C@H](CO)[C@@H](O)[C@H](O)[C@H]2O)nn1 | 256 (≈ 559 µM) | 4 | fold change (FC) (Staphylococcus aureus [3]): 64

— ChEMBL document CHEMBL3608269, “Triazole-Linked Glycolipids Enhance the Susceptibility of MRSA to β-Lactam Antibiotics” (ACS Med Chem Lett, 2015)
